Test results: patent US11679110B2, “Methods of treating disorders using CSF1R inhibitors” (Deciphera Pharmaceuticals, LLC, priority 2018, dated 2023)
Read-outs that look alike come from different tables or passages of the source.

Key:
advanced solid tumors = assay: Antitumor activity in patients with advanced solid tumors, RECIST 1.1; format: in vivo, human
Text: The study enrolls patients with solid tumors or manifestations of cancer with known contribution of macrophages or phagocytes, i.e., tumors known to have expression of the receptor colony-stimulating factor 1 receptor (CSF1R) or its ligands, Colony stimulating factor-1 (CSF1) or interleukin (IL)-34, confirmed by the literature or prior testing. […]. In addition, tumor-associated manifestations featuring macrophage or osteoclast pathophysiology including bone metastases and ascites or effusions that typically contain high levels of macrophages will be enrolled. […].
The study consists of a screening period that is conducted within 28 days prior to the first dose of study drug, a treatment period of 28-day cycles, an End of Treatment visit, and Follow-up Safety visits at both 30 days and 75 days (±5 days) after the last dose of study drug. Patients will be eligible to receive study drug for up to 2 years until tumor progression, occurrence of unacceptable toxicity, or withdrawal of consent, or until commercial supply of the drug is available. […] Patients may continue receiving treatment after tumor progression. […]
(§1) Tumor response will be assessed by tumor type using the following criteria: for solid tumors and DTGCT: RECIST, Version 1.1; and for bone-only disease: a new lesion(s) identified by bone scan will be considered as disease progression.

[1] = target: unphosphorylated c-KIT kinase (Homo sapiens (Human), UniProt P10721); assay: c-KIT kinase assay, coupled pyruvate kinase/lactate dehydrogenase; format: biochemical; settings: enzymatic assay, 1 mM ATP
Sequence of unphosphorylated c-KIT kinase (P10721 other isoform, or with tags, fused parts or gaps): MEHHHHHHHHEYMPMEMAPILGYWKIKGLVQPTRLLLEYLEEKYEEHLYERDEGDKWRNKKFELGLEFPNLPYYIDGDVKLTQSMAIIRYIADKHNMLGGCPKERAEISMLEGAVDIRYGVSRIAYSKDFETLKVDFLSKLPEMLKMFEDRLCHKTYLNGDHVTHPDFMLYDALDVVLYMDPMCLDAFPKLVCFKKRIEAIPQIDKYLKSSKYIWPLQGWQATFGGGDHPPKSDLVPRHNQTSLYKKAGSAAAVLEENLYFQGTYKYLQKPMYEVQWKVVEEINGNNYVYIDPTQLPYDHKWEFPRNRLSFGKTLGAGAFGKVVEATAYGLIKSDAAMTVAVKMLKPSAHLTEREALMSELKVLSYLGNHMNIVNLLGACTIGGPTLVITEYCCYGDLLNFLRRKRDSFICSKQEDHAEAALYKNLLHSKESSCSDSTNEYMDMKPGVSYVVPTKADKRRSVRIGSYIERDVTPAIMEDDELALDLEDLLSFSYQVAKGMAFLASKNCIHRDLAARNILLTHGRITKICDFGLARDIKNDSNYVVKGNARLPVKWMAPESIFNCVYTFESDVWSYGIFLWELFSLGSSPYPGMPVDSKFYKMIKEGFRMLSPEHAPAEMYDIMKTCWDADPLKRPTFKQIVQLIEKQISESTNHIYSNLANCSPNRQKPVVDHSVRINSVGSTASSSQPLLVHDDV

[2] = dog, in vivo
in vivo [3] = settings: Sprague-Dawley, rat
[4] = dog
in vivo [5] = settings: Sprague-Dawley, rat; remark: listed apart in the source
[6] = tested on: diffuse-type tenosynovial giant cell tumor; assay: Tumor response and symptoms in DTGCT patients (case studies), RECIST version 1.1; format: in vivo, human
Text: as §1
Additional descriptions of case studies of patients with DTGCT treated within this study are provided below: […]

[7] = Dose escalation 3+3 design, DLT / maximum tolerated dose in patients; format: in vivo, human; settings: through Cohort 7
Text: A minimum of 3 patients is enrolled in each dose level cohort. If a patient experiences a DLT during Cycle 1, then the cohort will be expanded to 6 patients. If ≥2 patients out of 3 to 6 patients experience one or more dose-limiting toxicities (DLT(s)) during Cycle 1, dose escalation will end, and a lower dose level cohort will be expanded for determination of the maximum tolerated dose (MTD). If no additional patients experience a DLT in the expanded cohort, the dose level will be escalated. Decisions of dose escalation and the dose level of the next cohort will be determined. A patient will be evaluable in the dose escalation phase if the patient either experienced a DLT during Cycle 1 or received ≥80% of planned doses of study drug in Cycle 1. After Dose Escalation Cohort 6, a review of safety, PK and PD data will determine future escalation cohorts. No more than 50% increases in a total dose given in the first cycle will be allowed from the previous cohort.
The MTD will be defined as the highest dose level at which no more than 1 of 6 DLT-evaluable patients experiences a DLT(s) in Cycle 1 during dose escalation. An additional, lower, intermediate dose level may be explored to determine a recommended phase 2 dose (RP2D). The RP2D will be the MTD or a biologically active or maximally feasible dose lower than the MTD. Different RP2Ds may be determined for solid tumor and DTGCT patients. […]

[8] = Sprague-Dawley, rat, in vivo, 4 weeks
[9] = rat, in vivo
intratumoral macrophages = settings: MC38 mice; oral QD; 21 days
[10] = dog, 13-week

**Q.** What does the source list for Cc1nc(-c2cnc(NC(C)C)n(C)c2=O)ccc1Oc1ccnc(-c2cnn(C)c2)c1 [Compound 1, 2-(isopropylamino)-3-methyl-5-(6-methyl-5-((2-(1-methyl-1H-pyrazol-4-yl)pyridin-4-yl)oxy)pyridin-2-yl)pyrimidin-4(3H)-one]?
**A.** duration of stable disease (advanced solid tumors; a patient with thymoma): 6 months; patients with a best response of stable disease (advanced solid tumors; advanced solid tumors, dose escalation): 5 patients; IC50 [1]: 864 nM; HNSTD (Highest Non-Serious Toxic Dose) ([2]; beagle, 4 weeks): 7.5 mg/kg/day; safety margin at NOAEL/HNSTD relative to clinical exposure (AUC) [2]: about 2.1 ×; NOAEL at 13 weeks (in vivo [3]): 1.88 mg/kg/day; NOAEL at 4 weeks ([4]; beagle, in vivo): 7.5 mg/kg/day; hepatocellular injury in microscopic histology exams ([4]; 4-week): not evident; AST activity ([4]; 4-week, ≥2.5 mg/kg/day): minimally to mildly increased; ALT and GLDH activity ([4]; 4-week, ≥7.5 mg/kg/day): minimally increased; NOAEL at 4 weeks (in vivo [5]): 5 mg/kg/day; symptoms ([6]; DTGCT Patient 1, Cohort 5): Improved pain and swelling and effusion were nearly resolved in the first cycle; decrease in tumor size from baseline ([6]; DTGCT Patient 1, Cohort 5 (30 mg twice weekly maintenance), C3D1): 48%; decrease in tumor size from baseline ([6]; DTGCT Patient 1, Cohort 5, C5D1): 61%; decrease in tumor size from baseline ([6]; DTGCT Patient 1, Cohort 5, C7D1): 75%; decrease in tumor size from baseline ([6]; DTGCT Patient 1, Cohort 5, C10D1): 84%; symptoms ([6]; DTGCT Patient 2, Cohort 5): pain improvement, increased range of motion, and less stiffness; decrease in tumor size from baseline ([6]; DTGCT Patient 2, Cohort 5, C3D1): 25%; symptoms ([6]; DTGCT Patient 3, Cohort 5): rapid symptom improvement, with less pain and swelling and improved range of motion after the first cycle; decrease in tumor size from baseline ([6]; DTGCT Patient 3, Cohort 5, C3D1): 24%; tumor response ([6]; DTGCT patient): up to 84%; MTD [7]: has not been reached; STD10 (Severely Toxic Dose in 10% of animals) [8]: 15 mg/kg/day; STD10 ([9]; Sprague-Dawley, 13 weeks): 7.5 mg/kg/day; increases in AST, ALT, GLDH and ALP activities [9]: minimal or mild; reduction in intratumoral macrophages compared to vehicle or isotype controls (as a percent of all cells in the tumor) (intratumoral macrophages): > 80%; microscopic liver changes [10]: without corresponding microscopic liver changes; increases in AST, GLDH and creatine kinase activities ([10]; 8 mg/kg/day): minimal or mild
